Measurements reported in patent publication US11215608B2, “Methods of determining cellular chemosensitivity” (Dana-Farber Cancer Institute, Inc., priority 2006, dated 2022).
“And” between values parts separate entries of the source, which are not always exact repeats. Equal values may be shown once. Read-outs that look alike come from different tables or passages of the source.

What was measured:
2B4 cells = assay: 2B4 cell viability with dexamethasone by Annexin V; type: cell-based, murine; settings: 24 hours
Source text: (§1) Cells were stained with fluorescent conjugates of Annexin-V (BioVision) and propidium iodide (PI) and analyzed on a FACSCalibur machine (Becton-Dickinson).

[1] = tested on: peripheral blood mononuclear cells (PBMC); assay: Annexin-V death assay of normal PBMC; type: cell-based; settings: Homo sapiens, 24 hours, read-out: EC50, PBMC from normal donors
Protocol: as §1
(§2) 15 ml of blood in heparin treated tubes was obtained from each anonymous CLL patient and processed without freezing. Equal volume of media (RPMI medium, 10% […], supplemented with […] and 10 mg/ml transferrin) was mixed with each sample and CLL cells isolated by centrifugation through Ficoll-PAQUE Plus (Amersham). Cells were washed twice in media and cultured at a density of 2.0×10^6 cells/ml for up to 48 hours. Samples for FIG. 11A were obtained from 24 consecutive patients identified with WBC >50,000/μl. All guidelines and regulations were followed in accordance with IRB protocols #99-224 (Dana-Farber Cancer Institute). Normal PBMC's were obtained from tubing discarded following platelet donation by anonymous normal donors and processed as above, except cultured without insulin and transferrin.
CLL cells have shown sensitivity to ABT-737, so they were selected as a possible initial cancer model of BCL-2 dependence (Oltersdorf et al., 2005). Freshly isolated primary CLL cells were incubated with ABT-737 or negative control enantiomer. After 48 hours, death was assessed using Annexin-V staining. […] Directly targeting the apoptotic machinery might be expected to induce apoptosis rapidly.

BCL-2 = BCL-2 (Homo sapiens, UniProt P10415); settings: cited from earlier work
BCL-XL = BCL-XL (Homo sapiens, UniProt Q07817); settings: cited from earlier work
BCL-2:BIM complex [2] = molecular target: T1, BCL-2:BIM complex (Homo sapiens, UniProt P10415); assay: BCL-2 immunoprecipitation from treated primary CLL cells; type: cell-based; settings: 100 nM, 24 hours
T1 construct: A BCL-2 antibody was used to immunoprecipitate BCL-2 from CLL lysates from four independent patient samples; endogenous in cells; host or cells: freshly isolated primary human CLL cells

[3] = tested on: SU-DHL4, SU-DHL6, SU-DHL8, SU-DHL 10; assay: Lymphoma cell line sensitivity to agents; type: cell-based; settings: four lymphoma cell lines compared
Protocol: Only cells that are dependent on BCL-2 for survival are predicted to respond to BCL-2 antagonists like ABT-737. […] To test this, cells were treated with vincristine.

CLL mitochondria = assay: Cytochrome c release from CLL mitochondria; type: biochemical, human; settings: peptides or compounds 100 μM
Protocol: Alternatively, mitochondria were purified from freshly isolated CLL cells and cell lines by mechanical disruption followed by differential centrifugation, as previously described (Letai et al., 2002). Mitochondrial suspensions were made at 0.5 mg protein/ml, except for the case of ABT-737 and negative control enantiomer treatments, where 0.1 mg/ml was used. Release of cytochrome c was determined by a comparison of cytochrome c in the pellet and supernatant quantitated by ELISA (R&D systems).
CLL mitochondria were incubated with BH3 peptides as well as ABT-737 and negative control enantiomer (FIG. 14). […] This pattern is diagnostic of mitochondrial BCL-2 dependence. […] Since the BH3 peptides in the sensitizer panel lack the ability to directly activate BAX and BAK, these experiments also implicated the presence of an activator molecule constitutively sequestered by BCL-2 in CLL.

H146 and H1963 = settings: in vitro and murine xenograft; cited from earlier work
CLL cells = assay: Annexin-V death assay of freshly isolated primary CLL cells; type: cell-based, human; settings: 48 hours
Protocol: as §1, §2
Experimental replicates were performed using lysates or mitochondria from different CLL samples. In main body, where a P value is given, it was obtained by using a two-tailed Students t-test, and P<0.05 was considered statistically significant. GraphPad Prism software was used to determine EC50 values by non-linear dose-response curve fitting and to perform Mann-Whitney nonparametric testing in Table 5.
Freshly isolated primary CLL cells were incubated with ABT-737 or negative control enantiomer. After 48 hours, death was assessed using Annexin-V staining.

BCL-2:BIM complex [4] = molecular target: T1, BCL-2:BIM complex; assay: Displacement of BIM from immunoprecipitated BCL-2, detergent-free; type: binding; settings: 1 μM, detergent-free conditions
FL5.12 cells = assay: FL5.12 cell survival by Annexin V; type: cell-based, murine
Protocol: as §1
FL5.12 cells were cultured as described previously in Iscove's modified Dulbecco's medium, 10% fetal bovine serum, 1000 ug/ml G418 with or without IL-3 provided by 10% WEHI-3B supplement (supernatant of IL-3 secreting WEHI-3B cells). FL5.12 cells were stably transfected with a vector containing a neomycin resistance construct and either human BCL-2 cDNA (FL5.12-BCL-2) or no insert (wt). 2B4 cells were cultured in RPMI 1640 supplemented with 10% fetal bovine serum, 100 U/ml penicillin, 100 ug/ml streptomycin, 10 uM non-essential amino acids and 8 ul/L betamercaptoethanol. Stably transfected 2B4 cells were isolated after transfection with pLZR-GFP retroviral vector or vector with Flag-Mc1-1 (kind gift from Joe Opferman).
In order to test whether mitochondrial dependence on individual antiapoptotic protein function can be correlated with cellular behavior, cellular models of defined antiapoptotic dependence were investigated. First, it was determined if cellular requirement for BCL-2 for cellular survival correlates with the BCL-2 signature of mitochondrial sensitivity to sensitizer BH3 domains found in FIG. 1B. The pro-lymphocytic murine FL5.12 cell line requires IL-3 to maintain survival. […]

T1 sequence (P10415 whole entry, one chain of several): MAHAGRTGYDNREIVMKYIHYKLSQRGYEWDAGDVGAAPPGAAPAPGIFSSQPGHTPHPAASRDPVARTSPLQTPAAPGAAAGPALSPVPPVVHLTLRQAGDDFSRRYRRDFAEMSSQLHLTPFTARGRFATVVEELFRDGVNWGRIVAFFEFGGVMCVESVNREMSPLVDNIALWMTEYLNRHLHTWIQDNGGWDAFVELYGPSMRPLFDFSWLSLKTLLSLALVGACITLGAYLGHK
BCL-2, sequence (P10415 whole entry, species assumed): as the sequence (P10415 whole entry, one chain of several) above
BCL-XL, sequence (Q07817 whole entry, species assumed): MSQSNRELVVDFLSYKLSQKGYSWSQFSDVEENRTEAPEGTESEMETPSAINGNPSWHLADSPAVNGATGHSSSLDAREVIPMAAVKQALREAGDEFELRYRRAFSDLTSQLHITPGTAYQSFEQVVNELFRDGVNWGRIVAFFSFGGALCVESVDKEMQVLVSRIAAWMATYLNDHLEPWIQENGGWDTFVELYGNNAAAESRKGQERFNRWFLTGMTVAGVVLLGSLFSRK

Structure (SMILES): CN(C)CC[C@H](CSc1ccccc1)Nc1ccc(S(=O)(=O)NC(=O)c2ccc(N3CCN(Cc4ccccc4-c4ccc(Cl)cc4)CC3)cc2)cc1[N+](=O)[O-] [ABT-737]
- effect on cell survival (2B4 cells; BCL-2-protected dexamethasone-treated 2B4 cells): very sensitive to ABT-737
- effect on cell survival (2B4 cells; MCL-1-protected dexamethasone-treated 2B4 cells): has no effect
- EC50 [1]: > 1000 nM
- affinity to BCL-2 (BCL-2): sub-nanomolar range
- affinity to BCL-XL (BCL-XL): sub-nanomolar range
- amount of BIM bound to BCL-2 (BCL-2:BIM complex [2]): causes a dramatic reduction in the amount of BIM bound to BCL-2
- cell sensitivity to the agent [3]: BH3 profiling accurately predicted response to ABT-737
- cytochrome c release (CLL mitochondria): also induced cytochrome c release
- sensitivity of H146 and H1963 to treatment (H146 and H1963): sensitive to treatment with ABT-737 in vitro and in an in vivo murine xenograft model
- EC50 (CLL cells; CLL cells of one patient per row (V1-V24), read-out: EC50 ABT-737): 3.6 nM and 2.1 nM and 3.1 nM and 1.9 nM and 4.1 nM and 8.7 nM and 5.8 nM and 6 nM and 3.3 nM and 6.4 nM and 2.9 nM and 9.4 nM and 2.3 nM and 4.8 nM and 4 nM and 7.4 nM and 6.1 nM and 7 nM and 3.2 nM and 3.5 nM
- EC50 (CLL cells; Homo sapiens, CLL cell, 48 h, twenty-four CLL samples, read-out: mean EC50, apoptosis of CLL cells): 4.5 nM
- EC50 (CLL cells; Homo sapiens, CLL cell, 48 h, twenty-four CLL samples, read-out: range of EC50 over CLL samples): 1.9 to 9.4 nM
- displacement of BIM from BCL-2 into the supernatant (BCL-2:BIM complex [4]): displaces BIM from BCL-2 into the supernatant
- toxicity (FL5.12 cells; IL-3 replete wt FL5.12 cells): non-toxic
- cell death (FL5.12 cells; IL-3 starved FL5.12-BCL-2 cells, 24 hours): induced cell death in the IL-3 starved
